Values of other authors in patent US10293048B2, “Pharmaceutical compositions comprising boronic acid compounds” (DR. REDDY'S LABORATORIES LIMITED, priority 2012, dated 2019).
Like-named read-outs stand apart in the source and are kept apart here.

Settings: 1.3 mM in 2% ethyl alcohol/98% normal saline pH 2.8, 25° C., 14 days

- degradation (containing 0.1% of ascorbic acid): 21.8%
- degradation (no ascorbic acid): 5.9%
SMILES: CC(C)C[C@H](NC(=O)[C@H](Cc1ccccc1)NC(=O)c1cnccn1)B(O)O [bortezomib, [(1R)-3-methyl-1-[[(2S)-1-oxo-3-phenyl-2-[(pyrazinylcarbonyl)amino]propyl]amino]butyl]boronic acid]
